Assay [1] relates to NF-κB pathway. Kind of assay: NF-κB activation assay, A549 cells with SEAP reporter. To be noted: 24 hours after dosing, A549 cells. The class given is cell-based, Human. An excerpt:
As a high-throughput method of screening compounds for their ability to get into cells and activate immunological pathways related to HIV latency reversal ([46], [70]), we conducted an NF-κB reporter assay using A549 cells stably integrated with a secreted embryonic alkaline phosphatase reporter under the control of a promoter fused to five NF-κB binding sites (Fig. 7B) ([48], [70], [71]).
Human A549-Dual™ Cells supplied by InvivoGen (Cat. code a549d-nfis) and CHO-K1 cells were passaged when about 90% confluency was reached (approximately every three days). With each passage, media was aspirated from the cell layer, which was then washed with PBS. Following aspiration of the PBS, cells were detached from the culture flask with 0.25% GibcoTM Trypsin-EDTA and transferred to a 50 mL conical, which was volumed up with complete pre-warmed DMEM (4.5 g/L glucose, 10% FBS, and 1% Pen-Strep-Glutamine (100 X, 50 mg/mL)) or Ham's F-12K (Kaighn's) Medium supplemented with 10% FBS and 1% Pen-Strep (100 X, 50 mg/mL).
This conical was spun down at 1800 rpm for 3 minutes, the supernatant was removed, and cells were resuspended in their respective fresh, pre-warmed media. To count cells, 10 μL of resuspended cells were added to a sterile microcentrifuge tube and mixed with 10 μL of trypan blue after which 10 μL of the mixture was pipetted into a Countess chamber slide. A Countess™ 3 Automated Cell Counter was subsequently utilized to determine cell viability and concentration.
1 x 10^6 cells were seeded with each passage into a T75 culture flask, and cells were incubated at […]
Human A549 lung carcinoma cells (InvivoGen Cat. code a549d-nfis), stably integrated with a secreted embryonic alkaline phosphatase (SEAP) reporter, allow for the activity of the NF-κB pathway to be monitored. The SEAP reporter is under control of the interferon β (IFN-β) minimal promoter, which is fused to five NF-κB binding sites.
5 × 10^4 A549 cells were plated on Corning® 96 Well TC-Treated Microplates (CLS3595) in 180 μl of pre-warmed DMEM (4.5 g/L glucose, 10% heat-inactivated FBS (30 min at 56 ℃), and 1% Pen-Strep-Glutamine (100 X, 50 mg/mL)). Note that if cells were grown in media containing FBS that is not heat-inactivated, media will contain alkaline phosphatase. In this case, all supernatant must thoroughly be aspirated from the cell pellet obtained after centrifugation before resuspending cells in media containing heat inactivated FBS for plating. Following incubation at 37 °C in 5% CO2 for approximately 24 hours to allow for cell adherence onto the 96 well plate, 1.8 μL of each compound dissolved in DMSO was added in quadruplicate to their respective wells to achieve a final compound concentration of 1500 nM, 500 nM, or 50 nM. 1.8 μL of DMSO was added to wells as negative controls while wells treated with EBC-46 served as positive controls. 24 hours following compound addition, 180 μL of QUANTI-BlueTM Solution (InvivoGen Cat. code rep-qbs)- medium containing QB buffer and QB Reagent for detection and quantification of alkaline phosphatase- were added into wells on a new clear flat-bottom 96-well plate. 20 μL of supernatant of either SEAP-expressing cells incubated with compound or SEAP-expressing cells incubated with DMSO only were added to the wells in the new 96-well plate containing QUANTI-BlueTM Solution. Supernatant and QUANTI-BlueTM Solution were incubated at 37 °C in 5% CO2 for approximately an hour and a half. Following incubation, optical density (OD) at 630 nm was measured for each well using a BioTek Synergy H1 microplate reader under normal read speed and with a delay of 100 msec.

Assay [2] has as its system J-Lat clone 10.6 cells. Put plainly: J-Lat HIV latency reversal assay (GFP expression). The class given is cell-based, Human. To be noted: J-Lat 10.6; for HIV latency reversal time course in words: over 48 hours. An excerpt: Having shown that our lead compounds bind cell-free PKC isoforms, enter cells, translocate PKC-GFP fusion proteins, and activate NF-κB transcription factors, we next set out to determine whether our analogs were capable of reversing HIV from latency. We performed in vitro assays using T lymphocyte J-Lat clone 10.6, which contains a latent near full-length replication-incompetent integrated HIV DNA genome ([72]). J-Lat 10.6 lacks two viral genes, env and nef, which encode for the envelope protein and an accessory protein, respectively, and thus cannot initiate a spreading HIV infection. The integrated HIV provirus also encodes a GFP reporter gene, allowing latency reversal to be measured by quantification of GFP expression (fig. S1). […] In this latency reversal assay, we quantified GFP expression 48 hours after compound addition and observed bryostatin 1 to be maximally effective at concentrations of 40 nM or higher with latency reversal in 12% of cells (Fig. 8). Given the efficacy of bryostatin 1 as an LRA ([73], [74]), EBC-46 and many of its analogs tested in this J-Lat assay induced latency reversal in >90% of cells. […] SUW427, an esterase-releasable prodrug of EBC-46, also performed similarly to EBC-46 with a maximum efficacy of latency reversal in >90% of cells at a dose of 250 nM. […] The gradual release of EBC-46 from its prodrug form provides an alternative mode of administration that avoids the bolus effect associated with rapid drug administration ([17]). […] This is consistent with its lack of activity in the NF-κB activation assay and its design as a negative control as it is structurally similar to EBC-46 but unable to bind to the C1 domain of PKC at the concentrations used in this assay as it lacks a complete pharmacophore.
HIV latency reversal in-vitro assay
Human T Lymphocyte J-Lat Full Length Cell Line 10.6 (cat #9849) was obtained through the NIH HIV Reagent Program, Division of AIDS, NIAID, NIH and was contributed to the NIH HIV Reagent Program by Dr. Eric Verdin (70). J-Lat 10.6 cells were plated at 5 × 10^5 cells in 180 μL of RF10 media consisting of RPMI media supplemented with 1% Penicillin/Streptomycin and 10% Fetal Bovine Serum (FBS) in 96 -well U -bottom plates. J -Lat 10.6 cells were then stimulated for 48 hr by adding 20 μL of newly designed and synthesized tigilanol tiglate analogs, PKC modulators (bryostatin 1) as our positive control or med ia only (mock) as our negative control. Our negative control was RF10 media as the tigilanol tiglate analogs were freshly diluted with RF10 prior to plating. The final volume was 200 μL per well. Experiments were performed in three independent biological replicates, each completed in technical duplicates (n = 6). After 48 hr stimulation, 96 - well U -bottom plates were centrifuged at 296 RCF for 7 minutes to pellet cells, which were resusp ended in 200 μL of freshly prepared 2% paraformaldehyde (PFA) in PBS. GF P expression was measured 24 -hours post -fixation using the FITC channel on a LSR Fortessa (BD Biosciences) flow cytometer. Data analysis was conducted with FlowJo software version 10.8.1.

The subject of assay [3] is latent HIV. To be noted: cited from earlier work.
The subject of assay [4] is HIV. The note with it: HIV-infected, ART-treated humanized mice, cited from earlier work.

On to `CCC/C=C/C=C/C(=O)O[C@H]1/C(=C/C(=O)OC)C[C@H]2C[C@H]([C@@H](C)O)OC(=O)C[C@H](O)C[C@@H]3C[C@H](OC(C)=O)C(C)(C)[C@](O)(C[C@@H]4C/C(=C/C(=O)OC)C[C@H](/C=C/C(C)(C)[C@]1(O)O2)O4)O3` [bryostatin 1, reference compound], for which the “NF-κB activation (optical density, 630 nm)” value in assay [1] (50 nM) was 0.47 optical density, 630 nm; in assay [1] (500 nM), 0.41 optical density, 630 nm. The “latency reversal, % of cells” value in assay [2] (maximally effective at 40 nM or higher, 48 hours) is 12 % of cells.

Consider prostratin-C13-naphthyl acetate, for which the “potency as an LRA relative to prostratin” value in assay [3] was over 130 fold.

As to `CC=C(C)C(=O)OC1C(C)C2(O)C(C3OC3(COC(=O)OCc3ccc(OC(=O)OC)cc3)C(O)C3(O)C(=O)C(C)=CC32)C2C(C)(C)C12OC(=O)C(C)CC` (centres unmarked) [SUW427], the “NF-κB activation (optical density, 630 nm)” value in assay [1] (50 nM) is 0.33 optical density, 630 nm; in assay [1] (500 nM) it was 0.64 optical density, 630 nm. Further, the “HIV latency reversal time course in words” value in assay [2] (100 nM) is “clear delayed HIV latency reversal”; in assay [2] (250 nM) it was “almost converged with its parent compound at all time points and reached maximal latency reversal”. For the same compound, the “maximal latency reversal, % of cells” value in assay [2] (250 nM, 48 hours) is listed as > 90 % of cells.

For `C=C1C[C@H]2C[C@]3(O)O[C@H](C[C@@H](O)CC(=O)O[C@@H](CO)C[C@@H]4C/C(=C\C(=O)OC)[C@H](OC(=O)CCCCCCC)[C@@](O)(O4)C(C)(C)/C=C/[C@@H](C1)O2)C[C@H](OC(C)=O)C3(C)C` [SUW133], the “animals not rebounding in vivo after ART discontinuation” value in assay [4] (with natural killer cells as kill arm) was 40%. Further, in assay [4] (administered alone), the “effect on HIV rebound in words” value is recorded as “capable of delaying rebound when administered alone”.

The record behind these values is PMC11778240, “Synthesis and preclinical evaluation of tigilanol tiglate analogs as latency-reversing agents for the eradication of HIV” (Science Advances, 2025).
